In patent US20210177814A1, “USE OF GUANABENZ OR DERIVATES THEREOF FOR THE TREATMENT OF TYPE I IFN-DEPENDENT PATHOLOGIES” (INSERM (Institut National de la Santé et de la Recherche …, priority 2018, published 2021):

Tested on: endosomal TLRs
Assay: TMPD (pristane) + CpG ODN induced SLE model
Format: in vivo, mouse
Procedure: At day 7 mice were injected with CpG ODN 1585 (50 μg/20 g). Blood was collected once a month to dose the circulating autoantibodies level. Mice were sacrificed at week 24 after disease induction. (A) Flow cytometry analysis of peritoneum exudate cells populations (PEC) at day 14. […] Statistical significance was assigned using two tailed Student's t test (* p<0.05). (C) Level of circulating anti-RNA antibodies (normalized to control mice), anti-nuclear antibodies (arbitrary units), presence of lipogranulomas in the peritoneal cavity (arbitrary score) and glomerulopathy (histological score blindly determined by an anatomopathologist) at week 24. Statistical significance was assigned by a one-way ANOVA, followed by Tukey range test (* p<0.05;** p<0.005; ***p<0.0005.). N.S., not significant. n values in the figure indicate the number of mice.
Wild type female mice C57BL/6 of 6 weeks of age were injected i.p. with 500 μL of TMPD (Sigma Aldrich) or PBS. From day 1 to day 13 mice were injected i.p. every 2 days with GBZ or PBS/DMSO 2 mg/kg. Mice were injected i.p. at day 7 with ODN 1585 or PBS 50 μg/20 g of mouse. Mice were sacrificed at day 14 or after 6 months. At day 14, peritoneal exudate cells (PEC) were taken for flow cytometry analysis. After 6 months kidneys were taken for immunohistochemistry. During 6 months, blood serum collection was effectuated once a month, from month 2 after the injection of TMPD up to one week before the animal sacrifice. Serum was used to evaluate the concentration of circulating autoantibodies. Anti-RNA ELISA. Evaluation of autoantibodies against RNA was performed by coating ELISA plates with 50 μl/well of 5 μg/ml mouse RNA or DNA in PBS and incubated overnight at 4° C. Next day, the plates were incubated with 1:50 or 1:100 diluted serum samples in working solution (PBS+0.05% Tween20+1% BSA), and the assay was developed with HRP-labeled goat anti-mouse IgG (Southern Biotech).
Mouse kidney and liver were fixed in 10% buffered formalin for 24 h, then the tissues were dehydrated and embedded in paraffin. Tissue sections of 3.5 μm were cut using the microtom Leica RM2245. Hematoxylin-eosin staining was effectuated automatically with Leica autostainer XL. Finally, the slides were mounted with entellan and kept at room temperature. Biopsies were analyzed by an anatomopathologist and the clinical score was assigned in a blinded way. Pictures were taken with Nikon Eclipse.

[1] = 22 weeks after TMPD injection, vs TMPD and CpG only

In the case of `NC(N)=N/N=C/c1c(Cl)cccc1Cl` [GBZ, 2-(2,6-dichlorobenzylidene)-hydrazinecarboximidamide], the “circulating anti-RNA immunoglobulins titer” value [1] is reported as “substantially lower”, the “circulating anti-nuclear immunoglobulins titer” value [1] is reported as “substantially lower” and the “Ig-complexes deposits in the kidneys (glomerulonephritis)” value (C57BL/6, control vs GBZ-treated animals) is reported as “unable to induce overall sufficient glomerulonephritis to observe significant differences”. For the same compound, the “lipogranulomas in the peritoneal cavity” value (GBZ-treated vs TMPD and CpG only) was “considerably smaller numbers”, the “transcriptional up-regulation of TNF-α, ISG 15 and CH25H in PECs (qPCR)” value (TMPD+CpG injected mice, recurrent GBZ injections) was “strongly inhibited” and the “immune cells migration into or from the peritoneal cavity (PEC flow cytometry)” value (day 14, GBZ 2 mg/kg i.p. every 2 days, day 1 to 13) was “did not prevent”.
